Legend:
membrane-bound BDNF = assay: membrane-bound BDNF, non-permeabilizing immunofluorescence in differentiated SH-SY5Y cells; assay type: cell-based, human; settings: 1 h
Source text: The possibility of mimicking the function of the full-length BDNF protein by using a linear peptide fragment encompassing the first 12 amino acids of the mature NT N-terminal was already postulated.[31] Here, we named this sequence as m-bdnf (Figure 1A) and performed a systematic comparison between the performance of the full-length human BDNF produced recombinantly in Escherichia coli([32]) and (i) m-bdnf, (ii) a dimeric peptide displaying two copies of the m-bdnf sequence covalently bound by a disulfide bridge (d-bdnf), and (iii) a monomeric peptide displaying the scrambled sequence of m-bdnf (s-bdnf). We first investigated the ability of these peptides to activate the TrkB receptor. […] Specifically, an EC50 concentration of BDNF (1 nM) or of d-bdnf (10 μM) was used in combination with the increasing concentration of d-bdnf and BDNF, respectively, and the increase of ERK phosphorylation was assessed. […] Of note, we also performed a non-permeabilizing immunofluorescence analysis to quantify the membrane-bound BDNF in differentiated SH-SY5Y cells in the absence or presence of BDNF and d-bdnf (Figure S1C,D). […] The same increment was not observed upon treatment with the d-bdnf peptide, while instead we measured a slight (∼18%) decrease of the signal possibly due to the ability of the peptide to displace endogenous BDNF at the tested dose (10 μM). […]

ERK = ERK phosphorylation in HEK 293 cells, which do not express TrkB; assay type: cell-based, human; settings: increasing concentrations, 10 min, unstimulated control 100%
Procedure: Figure S1. Evaluation of d-bdnf mechanism of action. A) ERK phosphorylation levels detected in HEK293T cells, after stimulation (10 min) with increasing concentrations of BDNF (white columns) or d-bdnf (grey columns) normalized to the unstimulated control (CTRL, black column) set to 100%.
Dunnett’s multiple comparison test. B) ERK phosphorylation levels detected in differentiated SH-SY5Y cells, after stimulation (10 min) with a combination of a single concentration of BDNF (1 nM referred to monomeric form) with increasing concentrations (10 nM-100 µM) of d-bdnf (left); B) a combination of a single concentration of d-bdnf (10 µM) with increasing concentrations (0.074 nM – 10 nM) of BDNF (right). […] C) Representative confocal fluorescence images of SH-SY5Y cells differentiated with retinoic acid (RA) and treated acutely with BDNF, d-bdnf or a combination of the two. […] Scale bar: 50 µm.D) Scatter dot plot of the mean ± SEM fluorescence intensity of the analyzed fields (nfields) for the different samples (NT: nfields=9 and total ncells= 285; BDNF: nfields=10 and total ncells= 297; d-bdnf: nfields=10 and total ncells= 255 cells; BDNF+d-bdnf: nfields=10 and total ncells= 253 cells; **p<0.01 according to […]
HSDPARRGELSV-NH2 (m-bdnf): Rt = 25.2 min. ESI-MS: calculated for C54H91N21O18: 1322.4 […]
SRAGPHLRDVSE-NH2 (s-bdnf): Rt = 27.4 min. ESI-MS: calculated for C54H91N21O18: 1322.4 […]

Molecule | decrease of membrane-bound BDNF fluorescent signal (membrane-bound BDNF; d-bdnf 10 μM) [%] | ERK phosphorylation in HEK 293 cells (ERK) | increase of membrane-bound BDNF fluorescent signal (membrane-bound BDNF; BDNF 150 ng/mL) [%]
HSDPARRGELSVC-C-VSLEGRRAPDSH (disulfide) [d-bdnf] | ~18 | not significantly different | 
brain-derived neurotrophic factor (protein, UniProt P23560 1-247, looked up, full-length, full-length human BDNF produced recombinantly in Escherichia coli) MTILFLTMVISYFGCMKAAPMKEANIRGQGGLAYPGVRTHGTLESVNGPKAGSRGLTSLADTFEHVIEELLDEDQKVRPNEENNKDADLYTSRVMLSSQVPLEPPLLFLLEEYKNYLDAANMSMRVRRHSDPARRGELSVCDSISEWVTAADKKTAVDMSGGTVTVLEKVPVSKGQLKQYFYETKCNPMGYTKEGCRGIDKRHWNSQCRTTQSYVRALTMDSKKRIGWRFIRIDTSCVCTLTIKRGR |  | not significantly different | ~40

From publication PMC9732821, “Neurotrophic Activity and Its Modulation by Zinc Ion of a Dimeric Peptide Mimicking the Brain-Derived Neurotrophic Factor N-Terminal Region” (ACS Chemical Neuroscience, 2022)
